Assay [1] addresses T1, Neuropeptide Y receptor type 2 (Homo sapiens, UniProt P49146).
T1 sequence (P49146 whole entry): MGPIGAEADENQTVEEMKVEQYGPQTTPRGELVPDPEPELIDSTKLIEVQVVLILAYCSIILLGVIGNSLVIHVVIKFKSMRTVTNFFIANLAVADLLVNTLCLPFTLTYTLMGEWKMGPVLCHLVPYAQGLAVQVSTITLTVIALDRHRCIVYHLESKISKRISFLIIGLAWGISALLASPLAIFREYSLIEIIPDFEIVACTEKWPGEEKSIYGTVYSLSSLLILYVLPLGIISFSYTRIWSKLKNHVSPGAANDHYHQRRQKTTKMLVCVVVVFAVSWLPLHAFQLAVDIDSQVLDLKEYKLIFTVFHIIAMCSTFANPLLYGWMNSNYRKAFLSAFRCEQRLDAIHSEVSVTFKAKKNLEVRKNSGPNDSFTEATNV
Format: functional, cell-based.

The target in assay [2] is T2, Neuropeptide Y receptor type 1 (Homo sapiens, UniProt P25929).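 Further: HEK293 cells with a CNG channel challenged with NPY then isoproterenol; potency as antagonist that reverses NPY suppression of cAMP signal.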
T2 sequence (P25929 whole entry): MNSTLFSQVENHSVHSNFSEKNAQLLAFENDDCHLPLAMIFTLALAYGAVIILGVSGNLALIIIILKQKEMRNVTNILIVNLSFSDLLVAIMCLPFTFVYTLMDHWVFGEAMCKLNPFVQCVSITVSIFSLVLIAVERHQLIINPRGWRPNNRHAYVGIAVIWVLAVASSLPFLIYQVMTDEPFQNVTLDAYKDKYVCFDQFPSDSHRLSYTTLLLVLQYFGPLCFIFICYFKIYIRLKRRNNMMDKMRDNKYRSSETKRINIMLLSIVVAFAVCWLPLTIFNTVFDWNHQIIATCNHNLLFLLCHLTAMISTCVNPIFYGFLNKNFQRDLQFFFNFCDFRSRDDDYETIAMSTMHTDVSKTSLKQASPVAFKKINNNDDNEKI
In kind it is functional.

Assay [3] addresses Sphingosine 1-phosphate receptor 2 (Homo sapiens, UniProt O95136). Put plainly: Dose Response Cell Based Assay for Agonists of the S1P2 Receptor of Purchased Analogues. [Related pubchem assays: 729, 843, 854, 736 ]. Format: functional.
Another assay addresses T3, Estrogen receptor (Homo sapiens, UniProt P03372).
T3 sequence (P03372 whole entry): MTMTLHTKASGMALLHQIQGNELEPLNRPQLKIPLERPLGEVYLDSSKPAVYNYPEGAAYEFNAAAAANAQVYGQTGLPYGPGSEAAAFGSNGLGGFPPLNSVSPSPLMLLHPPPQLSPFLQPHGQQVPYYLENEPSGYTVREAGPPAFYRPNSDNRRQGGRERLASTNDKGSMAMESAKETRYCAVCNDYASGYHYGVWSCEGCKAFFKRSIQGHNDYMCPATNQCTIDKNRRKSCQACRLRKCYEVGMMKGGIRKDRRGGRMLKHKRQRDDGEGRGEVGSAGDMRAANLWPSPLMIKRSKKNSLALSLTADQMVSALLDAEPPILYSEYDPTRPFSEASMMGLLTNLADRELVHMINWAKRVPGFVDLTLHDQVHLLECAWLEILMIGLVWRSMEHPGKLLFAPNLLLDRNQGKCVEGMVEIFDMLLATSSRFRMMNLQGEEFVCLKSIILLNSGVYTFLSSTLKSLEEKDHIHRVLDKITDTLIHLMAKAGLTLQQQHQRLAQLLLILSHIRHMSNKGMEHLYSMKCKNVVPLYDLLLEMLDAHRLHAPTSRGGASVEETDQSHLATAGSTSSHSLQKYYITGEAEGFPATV
As to the kind of experiment: ERα coactivator recruitment enhancers – biochemical, TR-FRET, ERα LBD, dose response (AID 737). For orientation: TR-FRET usually uses a lanthanide donor and a delayed reading to cut background.

The target of assay [4] is Epstein-Barr nuclear antigen 1 (Epstein-Barr virus (strain B95-8) (HHV-4) (Human herpesvirus 4), UniProt P03211). As to the kind of experiment: inhibition of EBV nuclear antigen 1 DNA binding – biochemical, fluorescence polarization, 1536-well, dose response (AID 2381).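 Further: fluorescence polarization of a Cy5 DNA probe bound by EBNA-1 protein.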 Details: species or system human gammaherpesvirus 4. For orientation: Polarisation of emitted light reports the rotation of a fluorescent probe.

The target in assay [5] is Lytic switch protein BZLF1 (Epstein-Barr virus (strain B95-8) (HHV-4) (Human herpesvirus 4), UniProt P03206). Put plainly: inhibition of BZLF1 ZTA DNA binding – biochemical, fluorescence polarization, Epstein-Barr virus, 1536-well, counter-screen for EBNA-1 inhibitor project, dose response (AID 2377).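 Further: fluorescence polarization of Cy5-labelled ZRE DNA probe bound by purified Zta.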 On the set-up: species or system human gammaherpesvirus 4.

Activity calls are given as the source filed them.

Sequence of Epstein-Barr nuclear antigen 1 (P03211 whole entry): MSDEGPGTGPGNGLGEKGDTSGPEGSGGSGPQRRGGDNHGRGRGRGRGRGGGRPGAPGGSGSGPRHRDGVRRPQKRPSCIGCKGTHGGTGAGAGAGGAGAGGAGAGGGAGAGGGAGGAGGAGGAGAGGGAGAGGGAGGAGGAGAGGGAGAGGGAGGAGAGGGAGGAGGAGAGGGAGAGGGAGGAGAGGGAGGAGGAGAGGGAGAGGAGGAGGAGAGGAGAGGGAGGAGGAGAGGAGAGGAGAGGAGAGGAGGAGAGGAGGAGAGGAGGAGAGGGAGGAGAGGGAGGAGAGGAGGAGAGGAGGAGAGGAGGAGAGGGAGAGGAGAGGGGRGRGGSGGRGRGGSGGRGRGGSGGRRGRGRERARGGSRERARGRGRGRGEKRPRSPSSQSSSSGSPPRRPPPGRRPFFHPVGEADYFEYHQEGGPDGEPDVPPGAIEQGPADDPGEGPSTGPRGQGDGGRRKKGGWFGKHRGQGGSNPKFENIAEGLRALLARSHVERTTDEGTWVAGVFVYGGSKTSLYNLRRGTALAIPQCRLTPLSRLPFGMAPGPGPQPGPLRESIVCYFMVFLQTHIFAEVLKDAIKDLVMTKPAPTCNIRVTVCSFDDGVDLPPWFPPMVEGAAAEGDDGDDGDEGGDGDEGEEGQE
Sequence of Sphingosine 1-phosphate receptor 2 (O95136 whole entry): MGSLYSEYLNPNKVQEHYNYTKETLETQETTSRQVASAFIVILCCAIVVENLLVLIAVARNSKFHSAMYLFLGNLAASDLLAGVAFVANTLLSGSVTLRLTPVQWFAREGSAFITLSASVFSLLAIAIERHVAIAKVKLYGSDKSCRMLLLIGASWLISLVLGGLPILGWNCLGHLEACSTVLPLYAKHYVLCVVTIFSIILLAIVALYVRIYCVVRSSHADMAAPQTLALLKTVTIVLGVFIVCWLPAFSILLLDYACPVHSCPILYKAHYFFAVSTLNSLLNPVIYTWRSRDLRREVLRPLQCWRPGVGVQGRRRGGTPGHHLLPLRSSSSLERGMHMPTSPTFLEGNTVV
Sequence of Lytic switch protein BZLF1 (P03206 whole entry): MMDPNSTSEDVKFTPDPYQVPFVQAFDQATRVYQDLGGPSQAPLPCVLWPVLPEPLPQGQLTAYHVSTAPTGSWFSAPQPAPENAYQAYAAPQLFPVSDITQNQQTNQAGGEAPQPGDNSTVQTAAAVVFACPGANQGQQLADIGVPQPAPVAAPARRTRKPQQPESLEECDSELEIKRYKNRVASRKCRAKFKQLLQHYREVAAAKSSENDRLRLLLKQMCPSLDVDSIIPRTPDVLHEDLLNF

As usually defined, the IC50 is the concentration needed to halve the response being measured. Consider `Clc1ccc(CSc2cc3c(nn2)-c2ccccc2CC3)cc1Cl`, for which the figures for the IC50 in assay [1] and in assay [2] were 6.88 µM (active) and 5.27 µM (active), respectively.

The term EC50 denotes the concentration that produces a half-maximal response. For the molecule `Cc1cc(C(=O)CN2C(=O)CCC2=O)c(C)n1Cc1ccc2c(c1)OCO2`, the EC50 in assay [3] was > 30 µM (not active).

As for `O=C(NCCCCCCNC(=O)c1ccc(Br)s1)c1ccc(Br)s1`, the EC50 at Estrogen receptor was 12.8 µM (not active).

Turning to `COc1ccc(CNc2nc(NCc3ccc(OC)cc3)n(C(C)=O)n2)cc1`, the IC50 in assay [4] is given as 37.8 µM (not active); in assay [5] it was > 111 µM (not active).

The values above are taken from ChEMBL document CHEMBL1201862, “PubChem BioAssay data set” (2004).
